Experimental data as given in the CheMixHub viscosity set.

Experiment: xn = mol fraction of the nth substance listed

BrC(Br)Br + CC(C)CCO
viscosity [mPa·s], 101.33 kPa
Details | x1 = 0.099 | x1 = 0.203 | x1 = 0.299 | x1 = 0.422 | x1 = 0.498 | x1 = 0.599 | x1 = 0.702 | x1 = 0.803 | x1 = 0.9
298.15 K | 3.419 | 3.063 | 2.77 | 2.415 | 2.265 | 2.111 | 1.957 | 1.888 | 1.873
303.15 K | 2.937 | 2.643 | 2.384 | 2.145 | 2.025 | 1.909 | 1.795 | 1.739 | 1.737
308.15 K | 2.527 | 2.306 | 2.111 | 1.905 | 1.815 | 1.729 | 1.647 | 1.61 | 1.605

BrC(Br)Br + CC(C)CO
viscosity [mPa·s], 101.3 kPa
Details | x1 = 0.099 | x1 = 0.197 | x1 = 0.3 | x1 = 0.395 | x1 = 0.498 | x1 = 0.597 | x1 = 0.701 | x1 = 0.798 | x1 = 0.901
298.15 K | 2.98 | 2.604 | 2.336 | 2.134 | 2.017 | 1.905 | 1.849 | 1.815 | 1.823
303.15 K | 2.544 | 2.272 | 2.045 | 1.901 | 1.808 | 1.732 | 1.693 | 1.679 | 1.699
308.15 K | 2.193 | 2.011 | 1.803 | 1.687 | 1.633 | 1.579 | 1.559 | 1.558 | 1.591

BrC(Br)Br + CCC(C)=O
viscosity [mPa·s]
Details | x1 = 0.1474 | x1 = 0.1586 | x1 = 0.3005 | x1 = 0.3052 | x1 = 0.5009 | x1 = 0.5019 | x1 = 0.6499 | x1 = 0.6501 | x1 = 0.8432 | x1 = 0.8502
298 K, 101.3 kPa | – | 0.583 | – | 0.768 | 1.072 | – | – | 1.318 | 1.626 | –
318 K, 101.33 kPa | 0.4678 | – | 0.6228 | – | – | 0.8523 | 1.038 | – | – | 1.298

CCCCCCCCO + CCC(C)=O
viscosity [mPa·s], 100 kPa
Details | x2 = 0.0822 | x2 = 0.1611 | x2 = 0.2403 | x2 = 0.3498 | x2 = 0.4409 | x2 = 0.5588 | x2 = 0.6462 | x2 = 0.7398 | x2 = 0.8503 | x2 = 0.9398
293.15 K | 7.1 | 5.43 | 4.3 | 3.18 | 2.46 | 1.7 | 1.26 | 0.96 | 0.68 | 0.49
303.15 K | 4.93 | 3.97 | 3.09 | 2.32 | 1.7 | 1.03 | 0.75 | 0.62 | 0.49 | 0.42
313.15 K | 3.59 | 2.87 | 2.28 | 1.69 | 1.32 | 0.98 | 0.78 | 0.62 | 0.49 | 0.39
323.15 K | 2.74 | 2.22 | 1.82 | 1.38 | 1.1 | 0.83 | 0.67 | 0.54 | 0.43 | 0.35

BrC(Br)Br + CCCC#N
298.15 K, 101 kPa
Details | viscosity [mPa·s]
x1 = 0.09373 | 0.6216
x1 = 0.2439 | 0.8407
x1 = 0.3911 | 1.021
x1 = 0.4986 | 1.169
x1 = 0.7 | 1.46
x1 = 0.9 | 1.724

CC12CC3CC(C1)CC(C)(C3)C2 + CCCCC1CCCCC1
viscosity [mPa·s], 100 kPa
Details | x1 = 0.083 | x1 = 0.1716 | x1 = 0.2652 | x1 = 0.3625 | x1 = 0.4617 | x1 = 0.5636 | x1 = 0.662 | x1 = 0.7728 | x1 = 0.8838
293.15 K | 1.407 | 1.518 | 1.654 | 1.802 | 1.989 | 2.215 | 2.472 | 2.797 | 3.222
298.15 K | 1.293 | 1.391 | 1.512 | 1.643 | 1.805 | 2.007 | 2.229 | 2.518 | 2.885
303.15 K | 1.194 | 1.281 | 1.389 | 1.506 | 1.647 | 1.828 | 2.024 | 2.272 | 2.601
313.15 K | 1.03 | 1.099 | 1.187 | 1.28 | 1.393 | 1.537 | 1.692 | 1.883 | 2.145
323.15 K | 0.893 | 0.951 | 1.008 | 1.088 | 1.182 | 1.289 | 1.414 | 1.583 | 1.774

BrC(Br)Br + CCCCCC
298.15 K, 101 kPa
Details | viscosity [mPa·s]
x1 = 0.1058 | 0.3543
x1 = 0.2044 | 0.402
x1 = 0.2976 | 0.4904
x1 = 0.3989 | 0.5721
x1 = 0.5 | 0.6698
x1 = 0.6001 | 0.8212
x1 = 0.6743 | 0.9353
x1 = 0.8 | 1.217
x1 = 0.8948 | 1.475

C=Cc1ccccc1 + CCCCCC
viscosity [mPa·s], 101.33 kPa
Details | x1 = 0.1019 | x1 = 0.1987 | x1 = 0.3024 | x1 = 0.4003 | x1 = 0.4992 | x1 = 0.6023 | x1 = 0.7055 | x1 = 0.8021 | x1 = 0.8935
298.15 K | 0.314 | 0.334 | 0.362 | 0.385 | 0.417 | 0.457 | 0.507 | 0.566 | 0.632
303.15 K | 0.302 | 0.319 | 0.346 | 0.367 | 0.397 | 0.436 | 0.482 | 0.534 | 0.597
308.15 K | 0.29 | 0.305 | 0.328 | 0.351 | 0.379 | 0.412 | 0.455 | 0.505 | 0.56

CCC(C)(C)OC + CCCCCC
viscosity [mPa·s], 100 kPa
Details | x1 = 0.0498 | x1 = 0.1632 | x1 = 0.2584 | x1 = 0.3742 | x1 = 0.4276 | x1 = 0.5464 | x1 = 0.6121 | x1 = 0.7457 | x1 = 0.8625 | x1 = 0.9488
293.15 K | 0.317 | 0.325 | 0.332 | 0.343 | 0.349 | 0.363 | 0.372 | 0.391 | 0.412 | 0.429
303.15 K | 0.287 | 0.293 | 0.3 | 0.31 | 0.315 | 0.33 | 0.339 | 0.362 | 0.384 | 0.407
313.15 K | 0.254 | 0.259 | 0.266 | 0.277 | 0.282 | 0.296 | 0.304 | 0.323 | 0.343 | 0.358

CCCCCCCCO + CCCCCC
298.15 K, 101.33 kPa
Details | viscosity [mPa·s]
x2 = 0.1657 | 4.313
x2 = 0.2119 | 3.677
x2 = 0.274 | 2.968
x2 = 0.3717 | 2.093
x2 = 0.4775 | 1.432
x2 = 0.5556 | 1.096
x2 = 0.6659 | 0.759
x2 = 0.7638 | 0.559
x2 = 0.8406 | 0.443
x2 = 0.9211 | 0.35
x2 = 0.9597 | 0.319

C=Cc1ccccc1 + CCCCCCC
viscosity [mPa·s], 101.33 kPa
Details | x1 = 0.1018 | x1 = 0.202 | x1 = 0.2988 | x1 = 0.3984 | x1 = 0.4989 | x1 = 0.5997 | x1 = 0.6992 | x1 = 0.8006 | x1 = 0.8979
298.15 K | 0.398 | 0.412 | 0.427 | 0.448 | 0.471 | 0.5 | 0.536 | 0.581 | 0.638
303.15 K | 0.379 | 0.393 | 0.406 | 0.425 | 0.445 | 0.473 | 0.508 | 0.55 | 0.599
308.15 K | 0.36 | 0.372 | 0.386 | 0.405 | 0.423 | 0.45 | 0.481 | 0.519 | 0.565

CCCCCCCCO + CCCCCCC
viscosity [mPa·s], 101.33 kPa
Details | 298.15 K | 308.15 K
x1 = 0.0448 | 0.4411 | 0.3932
x1 = 0.0922 | 0.4999 | 0.4375
x1 = 0.1826 | 0.6375 | 0.5457
x1 = 0.278 | 0.8198 | 0.6942
x1 = 0.3705 | 1.072 | 0.8964
x1 = 0.469 | 1.464 | 1.149
x1 = 0.5664 | 1.902 | 1.594
x1 = 0.6697 | 2.7 | 2.213
x1 = 0.7784 | 3.885 | 3.021
x1 = 0.8336 | 4.545 | 3.466
x1 = 0.8844 | 5.124 | 3.885
x1 = 0.9381 | 6.024 | 4.399

BrC(Br)Br + CCCCCCC(C)O
viscosity [mPa·s], 101.3 kPa
Details | x1 = 0.104 | x1 = 0.199 | x1 = 0.3 | x1 = 0.403 | x1 = 0.502 | x1 = 0.603 | x1 = 0.704 | x1 = 0.801 | x1 = 0.899
298.15 K | 5.244 | 4.606 | 3.91 | 3.391 | 2.965 | 2.623 | 2.337 | 2.123 | 1.969
303.15 K | 4.336 | 3.855 | 3.348 | 2.937 | 2.594 | 2.335 | 2.104 | 1.943 | 1.83
308.15 K | 3.625 | 3.274 | 2.894 | 2.566 | 2.288 | 2.084 | 1.913 | 1.785 | 1.698

C=Cc1ccccc1 + CCCCCCCC
Details | viscosity [mPa·s]
293.15 K, 101 kPa, x1 = 0.622 | 0.585
298.15 K, 101 kPa, x1 = 0.622 | 0.55
298.15 K, 101.33 kPa, x1 = 0.1009 | 0.512
298.15 K, 101.33 kPa, x1 = 0.1995 | 0.514
298.15 K, 101.33 kPa, x1 = 0.331 | 0.516
298.15 K, 101.33 kPa, x1 = 0.3985 | 0.522
298.15 K, 101.33 kPa, x1 = 0.4971 | 0.535
298.15 K, 101.33 kPa, x1 = 0.5989 | 0.558
298.15 K, 101.33 kPa, x1 = 0.7005 | 0.587
298.15 K, 101.33 kPa, x1 = 0.8009 | 0.616
298.15 K, 101.33 kPa, x1 = 0.8988 | 0.657
303.15 K, 101 kPa, x1 = 0.622 | 0.52
303.15 K, 101.33 kPa, x1 = 0.1009 | 0.481
303.15 K, 101.33 kPa, x1 = 0.1995 | 0.485
303.15 K, 101.33 kPa, x1 = 0.331 | 0.488
303.15 K, 101.33 kPa, x1 = 0.3985 | 0.495
303.15 K, 101.33 kPa, x1 = 0.4971 | 0.5
303.15 K, 101.33 kPa, x1 = 0.5989 | 0.524
303.15 K, 101.33 kPa, x1 = 0.7005 | 0.552
303.15 K, 101.33 kPa, x1 = 0.8009 | 0.575
303.15 K, 101.33 kPa, x1 = 0.8988 | 0.617
308.15 K, 101.33 kPa, x1 = 0.1009 | 0.461
308.15 K, 101.33 kPa, x1 = 0.1995 | 0.462
308.15 K, 101.33 kPa, x1 = 0.331 | 0.464
308.15 K, 101.33 kPa, x1 = 0.3985 | 0.467
308.15 K, 101.33 kPa, x1 = 0.4971 | 0.476
308.15 K, 101.33 kPa, x1 = 0.5989 | 0.495
308.15 K, 101.33 kPa, x1 = 0.7005 | 0.521
308.15 K, 101.33 kPa, x1 = 0.8009 | 0.55
308.15 K, 101.33 kPa, x1 = 0.8988 | 0.581
313.15 K, 101 kPa, x1 = 0.3202 | 0.43
313.15 K, 101 kPa, x1 = 0.622 | 0.465
323.15 K, 101 kPa, x1 = 0.622 | 0.418
323.15 K, 101 kPa, x1 = 0.8145 | 0.462
323.15 K, 101 kPa, x1 = 0.9081 | 0.479

CCCCCCCCO + CCCCCCCC
298.15 K, 101.33 kPa
Details | viscosity [mPa·s]
x1 = 0.0015 | 0.491
x2 = 0.0566 | 6.369
x2 = 0.1294 | 5.058
x2 = 0.2321 | 3.637
x2 = 0.353 | 2.469
x2 = 0.4724 | 1.705
x2 = 0.527 | 1.452
x2 = 0.6297 | 1.094
x2 = 0.778 | 0.764
x2 = 0.8294 | 0.683
x2 = 0.9163 | 0.572
